Where two headings read alike, the source gives them in different places.
Key:
S. typhimurium TA98 = conditions: for TA98 + S9 revertants/plate: NC 26.5 ± 5.4; for TA98 revertants/plate: NC 15.7 ± 4.9
[1] = Cytotoxicity assay (CellTiter 96 AQueous One) on Crl1790; assay type: cell-based, human; conditions: human, Crl1790 (CCD 841 CoN) normal colon cells, Crl1790, 24 h, dose 0 = 100.00, read-out: Growth inhibition data
Procedure: (§1) The best antifungal and/or antiaflatoxigenic compounds were tested to determine their cytotoxic activity against human normal cell lines deriving from lung (HFL1, ATCC and CCL-153), skin (Hs27, ATCC, CRL1634) and colon (Crl1790, ATCC, CCD 841 CoN) and a cell line deriving from a hematological tumor (U937, ATCC and CRL-3253). These different cell lines have been chosen to simulate the different human exposition routes to pesticide. Cell culture conditions have been previously reported. Compound cytotoxicity was determined using CellTiter 96® AQueous One Solution Cell Proliferation Assay (Promega Corporation, Madison, WI, USA). The very detailed protocol was described by Bartoli et al.. In brief, cells were seeded in a 96-well plate at a density of 5000 cells/well and after 24 h cells were treated with different concentrations of the compounds (0.5–1–5–10–50–100 µM). After the treatment period (24 h), the CellTiter Reagent was added to each well (20 µL/well) and the plate incubated for 4 h at 37 °C. The plate was then read at 485 nm in a multiwell plate reader (TECAN SpectraFluor Plus, Männedorf, Switzerland).

Crl1790 cells = experiment: as above; assay type: cell-based, human; conditions: Crl1790 cells, 24 h, only at the highest concentration (100 µM)
Procedure: as §1

[2] = test system: aflatoxin accumulation by A. flavus; experiment: microbe, parasite or virus in culture; assay type: cell-based, Aspergillus flavus; conditions: Aspergillus flavus
[3] = read-out: A.I. (%) (aflatoxin accumulation inhibition)

## CC(=NNC(N)=S)c1cccs1 [2-actpTS, 2-acetylthiophenethiosemicarbazone]
S. typhimurium TA98; +S9, 0.1 µM/plate
  TA98 + S9 MR (mutagenicity ratio): 0.9
  TA98 + S9 revertants/plate: 25.0 ± 0.0 revertants/plate
S. typhimurium TA98; +S9, 1.0 µM/plate
  TA98 + S9 MR (mutagenicity ratio): 1.4
  TA98 + S9 revertants/plate: 37.0 ± 4.2 revertants/plate
S. typhimurium TA98; +S9, 10.0 µM/plate
  TA98 + S9 MR (mutagenicity ratio): 1.3
  TA98 + S9 revertants/plate: 34.0 ± 2.8 revertants/plate
S. typhimurium TA98; +S9, 50.0 µM/plate
  TA98 + S9 MR (mutagenicity ratio): 1.2
  TA98 + S9 revertants/plate: 31.5 ± 6.4 revertants/plate
S. typhimurium TA98; +S9, 100.0 µM/plate
  TA98 + S9 MR (mutagenicity ratio): 1.2
  TA98 + S9 revertants/plate: 32.0 ± 2.8 revertants/plate
S. typhimurium TA98; -S9, 0.1 µM/plate
  TA98 MR (mutagenicity ratio): 1.9
  TA98 revertants/plate: 29.5 ± 3.5 revertants/plate
S. typhimurium TA98; -S9, 1.0 µM/plate
  TA98 MR (mutagenicity ratio): 1.5
  TA98 revertants/plate: 23.5 ± 6.4 revertants/plate
S. typhimurium TA98; -S9, 10.0 µM/plate
  TA98 MR (mutagenicity ratio): 1.0
  TA98 revertants/plate: 16.0 ± 1.4 revertants/plate
S. typhimurium TA98; -S9, 50.0 µM/plate
  TA98 MR (mutagenicity ratio): 1.4
  TA98 revertants/plate: 22.5 ± 3.5 revertants/plate
S. typhimurium TA98; -S9, 100.0 µM/plate
  TA98 MR (mutagenicity ratio): 1.3
  TA98 revertants/plate: 21.0 ± 0.0 revertants/plate
[1]; 0.5 µM
  viability at 24 h, 0.5 µM: 100 ± 3.63%
[1]; 1 µM
  viability at 24 h, 1 µM: 95.1 ± 7.76%
[1]; 5 µM
  viability at 24 h, 5 µM: 88.4 ± 2.25%
[1]; 10 µM
  viability at 24 h, 10 µM: 89.1 ± 5.24%
[1]; 50 µM
  viability at 24 h, 50 µM: 81.8 ± 3.48%
[1]; 100 µM
  viability at 24 h, 100 µM: 62 ± 4.6%
Crl1790 cells
  cytotoxic activity: mild cytotoxic activity
[2]; [3]
  inhibition at 50 µM: 58.3%
  inhibition at 100 µM: 88.4%
[2]; read-out: percentage of aflatoxin accumulation inhibition
  inhibition at 10 µM: 23%

Source: article PMC8123576 (International Journal of Molecular Sciences, 2021)
